Key:
[1] = Antioxidant potential, DPPH assay; settings: compared to compound free blank
Protocol: To evaluate the potential of allyl HTT and 4-MSOB HTT to act as antioxidants, ABTS and DPPH were used as model radicals and Trolox as reference antioxidants based on Shalaby and Shanab ([28]). In total, 1.5 mg of ABTS and 0.26 mg potassium peroxodisulfate were dissolved in 4 mL of pure water and incubated in the dark overnight at room temperature. Afterward, 36 mL of MeOH were added to obtain the fresh ABTS working solution. In the case of the DPPH assay, 1.1 mg of DPPH were dissolved in 4 mL of MeOH and incubated for 2 h in the dark at 4°C, followed by the addition of 36 mL of MeOH to obtain the fresh DPPH working solution. Standards of Trolox, allyl HTT, and 4-MSOB HTT were prepared in water/MeOH (90/10, v/v%) at concentrations in the range of 6.25–100 μM. To detect the antioxidant potential, 100 μL of standard or water/MeOH (90/10, v/v%) as control were added to 1,000 μL of ABTS or DPPH working solution, and the extinction was measured directly after mixing and after 6 min of incubation in the dark with a spectrometer (UviLine 9100, Schott Instruments, Mainz, Germany) at 734 nm in the case of ABTS assay and 515 nm in DPPH assay (each prepared as duplicate). The results are reported as mean ± SD of the reduction of the extinction compared to the control.

HepG2 cells [2] = experiment: Cytotoxicity, neutral red uptake assay; type: cell-based, human; settings: up to 100 μM, 24 h
Protocol: To determine the cytotoxicity of allyl HTT and 4-MSOB HTT, HepG2 and Caco-2 cells were seeded in a 96-well TC-plate (standard F, sterile, from Sarsted, Nümbrecht, Germany) using a seeding density of 20,000 cells/well. After 24 h, the medium was exchanged to 200 μL pure medium or 200 μL medium containing allyl HTT or 4-MSOB HTT with concentrations in the range of 0.1–100 μM. The cells were treated for 24 h under cell culture conditions (prepared for three biological replicates, every 3 technical replicates). Cell viability was determined using the MTT assay and the neutral red uptake assay based on Schröter et al. ([27]). In the case of MTT assay, after 24 h of HTT treatment, 20 μL of MTT solution (75 mg MTT in 15 mL PBS) were added, and cells were incubated for 60 min under cell culture conditions. Afterward, the supernatant was removed and 100 μL of lysis buffer (5% formic acid in isopropanol) was added and the plate was shaken for 10 min at 300 rpm before measuring the absorption at 550 ± 5 nm (reference 690 ± 5 nm) by a Tecan i-control Infinite M200 PRO plate reader (Crailsheim, Germany). In the case of the neutral red uptake assay, the supernatant was removed after 24 h HTT treatment, and 100 μL neutral red solution (40 mg neutral red in 10 mL PBS, freshly diluted 1:100 with medium and incubated for 24 h under cell culture conditions) was added. After incubation of neutral red solution for 2 h under cell culture conditions, the supernatant was removed, and cells were washed with 150 μL of PBS. After removing PBS, 150 μL desorb solution (49.5% water/49.5% ethanol/1% acetic acid) was added and the plate was shaken for 10 min at 300 rpm before measuring the absorption at 540 ± 5 nm by Tecan i-control Infinite M200 PRO plate reader. The mean ± SD is used for presenting the results of three technical replicates for each data point of the three biological replicates.

HepG2 cells [3] = experiment: Uptake into HepG2 cells (supernatant before and after cell lysis, LC-MS/MS); type: in vitro ADME, human; settings: for Amount of analyte in supernatant after cell lysis / Amount of analyte in supernatant before cell lysis / Increase due to cell lysis: HepG2, 100 μM, 24 h
Protocol: Cells originated from a human liver cancer cell line (HepG2) were grown in RPMI-1640 medium + 10% FBS + 1% penicillin/streptomycin under cell culture conditions (37°C and 5% CO2 atmosphere) in T-75 flasks (Sarsted, Nümbrecht, Germany) until a confluence of approximately 50%. This medium and growing conditions were used for all experiments with HepG2 cells in this study. The medium was exchanged by fresh medium for control samples, or by fresh medium containing a concentration of 100 μM allyl HTT or 4-MSOB HTT. Afterward, the cells were incubated for an additional 24 h (each prepared for three cell passages). In the case of cell experiments, all allyl HTT or 4-MSOB HTT spiked media were sterile filtered using Filtropur S 0.2 sterile from Sarstedt AG & Co (Nümbrecht, Germany). After treatment, the medium of HepG2 cells (~80% confluence) was removed and cells were washed three times with 6 mL of PBS. In a second approach performed only for 4-MSOB HTT, treated cells were washed 6 times with 6 mL of PBS. The higher number of washing steps in the case of 4-MSOB HTT was chosen to remove the analyte residues from the former treatment medium more effectively. This enabled to detect a significant increase in analyte amount due to cell lysis when comparing the analyte amount in the supernatant before and after cell lysis, as only three washing steps for allyl HTT and control were not sufficient to detect a significant difference in 4-MSOB HTT amounts due to cell lysis treatment. Afterward, cells were detached from the surface by incubation with 1.5 mL trypsin/EDTA (1 x) for 5 min at 37°C. The cell suspension was transferred into a 2-mL micro reaction vessel and centrifuged for 2 min at 560 g. Then, the cell pellet was washed carefully twice with 1.5 mL of pure water to remove further residues of the analyte spiked medium and to reduce the salt concentration in the samples for LC-MS/MS measurements. For cell lysis, the micro reaction vessels with cell pellet and approximately 60 μL supernatant were sonicated for 15 min in an ultrasonic bath, followed by the addition of 40 μL of MeCN and an additional sonication step for 15 min. Afterward, the cell suspension was centrifuged for 3 min at 4,000 g, and the supernatant, as well as the supernatant before cell lysis, were analyzed by LC-MS/MS. A standard addition method was used, with added amounts of 3 pmol of allyl HTT and 1.2 pmol of 4-MSOB HTT. The mass spectrometry parameters were like QTRAP method 1 (see Section Uptake and Excretion of 4-Hydroxythiazolidine-2-Thiones From a Red Cabbage Meal – A Human Self-Experiment) with an injection volume of 10 μL. The used HPLC method 3 was a gradient of A = water and B = MeCN with 0 to 5 min 2% B, an increase to 14 min up to 98% B, holding for 5 min followed by a decrease to 2% B at 20 min and re-equilibration with 2% B for 4 min, using a flow rate of 300 μL/min, Agilent Zorbax Eclipse Plus C8 column (see Section Stability of 4-Hydroxythiazolidine-2-Thiones in a Stomach Model) and a column oven temperature of 35°C. The given results are the mean of the three biological replicates ± SD. […] The significance of the difference in analyte amount before and after cell lysis was determined by t-test for independent samples per variable using the STATISTICA version 13.5 software (StatSoft, Hamburg, Germany) with a significance level of p ≤ 0.05.

C=CCN1C(=S)SCC1O (stereo not shown) [allyl HTT, 3-allyl-4-hydroxythiazolidine-2-thione]
Relative signal reduction of the extinction value of the radical DPPH ([1]; 6.25 µM): 0.2 ± 0.3%
Relative signal reduction of the extinction value of the radical DPPH ([1]; 12.5 µM): 0.0 ± 0.3%
Relative signal reduction of the extinction value of the radical DPPH ([1]; 25 µM): 0.1 ± 0.3%
Relative signal reduction of the extinction value of the radical DPPH ([1]; 50 µM): 0.1 ± 0.3%
Relative signal reduction of the extinction value of the radical DPPH ([1]; 100 µM): 0.0 ± 0.3%
effect on cell viability compared to untreated cells (HepG2 cells [2]): did not show any effect on cell viability
Amount of analyte in supernatant after cell lysis (HepG2 cells [3]; 3 washing steps): 1,060 ± 140 fmol
Amount of analyte in supernatant before cell lysis (HepG2 cells [3]; 3 washing steps): 520 ± 170 fmol
Increase due to cell lysis (HepG2 cells [3]; 3 washing steps): 540 ± 160 fmol
measured ratio for the higher uptake of allyl HTT compared to 4-MSOB HTT (HepG2 cells [3]; HepG2 cells): 27 fold

C[S+]([O-])CCCCN1C(=S)SCC1O (stereo not shown) [4-MSOB HTT, 4-hydroxy-3-(4-(methylsulfinyl)butyl)thiazolidine-2-thione]
Relative signal reduction of the extinction value of the radical DPPH ([1]; 6.25 µM): 0.3 ± 0.4%
Relative signal reduction of the extinction value of the radical DPPH ([1]; 12.5 µM): 0.0 ± 0.3%
Relative signal reduction of the extinction value of the radical DPPH ([1]; 25 µM): 0.3 ± 0.3%
Relative signal reduction of the extinction value of the radical DPPH ([1]; 50 µM): 0.3 ± 0.4%
Relative signal reduction of the extinction value of the radical DPPH ([1]; 100 µM): 0.3 ± 0.4%
effect on cell viability compared to untreated cells (HepG2 cells [2]): did not show any effect on cell viability
Amount of analyte in supernatant after cell lysis (HepG2 cells [3]; 3 washing steps): 810 ± 140 fmol
Amount of analyte in supernatant before cell lysis (HepG2 cells [3]; 3 washing steps): 760 ± 190 fmol
Increase due to cell lysis (HepG2 cells [3]; 3 washing steps): 56 ± 55 fmol
Amount of analyte in supernatant after cell lysis (HepG2 cells [3]; 6 washing steps): 21 ± 5 fmol
Amount of analyte in supernatant before cell lysis (HepG2 cells [3]; 6 washing steps): 1.7 ± 0.3 fmol
Increase due to cell lysis (HepG2 cells [3]; 6 washing steps): 20 ± 5 fmol
